Tests used:
Test in all cases: relative viability (nuclei count vs DMSO), 5 days (fraction); higher = more cells survive
PC-3 [JPC-3] = test system: PC-3 [JPC-3]
Summary of the method: (§1)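 Medians of duplicate plates are given as relative viability. That measure is the nuclei count in treated wells divided by the count in vehicle wells. Counts were taken on 4× images of lung cancer cell lines in 1536-well plates, 5 days after pin-tool dosing the day after seeding with one drug alone or a fixed anchor-drug dose plus five library-drug doses (not always all listed) in √10 steps.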

LXF-289 = test system: LXF-289
Summary of the method: as §1

HOP-62 = test system: HOP-62
Summary of the method: as §1

EMC-BAC-2 = test system: EMC-BAC-2
Summary of the method: as §1

SW 900 = test system: SW 900
Summary of the method: as §1

NCI-H3122 = test system: NCI-H3122
Summary of the method: as §1

SK-MES-1 = test system: SK-MES-1
Summary of the method: as §1

NCI-H2170 = test system: NCI-H2170
Summary of the method: as §1

NCI-H596 = test system: NCI-H596
Summary of the method: as §1

A-427 = test system: A-427
Summary of the method: as §1

NCI-H322M = test system: NCI-H322M
Summary of the method: as §1

NCI-H1792 = test system: NCI-H1792
Summary of the method: as §1

NCI-H2009 = test system: NCI-H2009
Summary of the method: as §1

NCI-H2228 = test system: NCI-H2228
Summary of the method: as §1

LK-2 = test system: LK-2
Summary of the method: as §1

SW 1573 = test system: SW 1573
Summary of the method: as §1

ABC-1 = test system: ABC-1
Summary of the method: as §1

NCI-H1944 = test system: NCI-H1944
Summary of the method: as §1

NCI-H522 = test system: NCI-H522
Summary of the method: as §1

HARA = test system: HARA
Summary of the method: as §1

NCI-H1993 = test system: NCI-H1993
Summary of the method: as §1

NCI-H727 = test system: NCI-H727
Summary of the method: as §1

CCN(CC)CCCCNc1ncc2cc(-c3cc(OC)cc(OC)c3)c(NC(=O)NC(C)(C)C)nc2n1 + N=C(N)NC(=N)NCCc1ccccc1 [Phenformin] (partner 250 µM)
relative viability (PC-3 [JPC-3]; first compound 0.01 µM): 0.485
relative viability (PC-3 [JPC-3]; first compound 0.03162 µM): 0.484
relative viability (PC-3 [JPC-3]; first compound 0.1 µM): 0.487
relative viability (PC-3 [JPC-3]; first compound 0.3162 µM): 0.498
relative viability (PC-3 [JPC-3]; first compound 1 µM): 0.449
relative viability (LXF-289; first compound 0.01 µM): 0.506
relative viability (LXF-289; first compound 0.03162 µM): 0.542
relative viability (LXF-289; first compound 0.1 µM): 0.547
relative viability (LXF-289; first compound 0.3162 µM): 0.53
relative viability (LXF-289; first compound 1 µM): 0.424
relative viability (HOP-62; first compound 0.01 µM): 0.81
relative viability (HOP-62; first compound 0.03162 µM): 0.847
relative viability (HOP-62; first compound 0.1 µM): 0.604
relative viability (HOP-62; first compound 0.3162 µM): 0.752
relative viability (HOP-62; first compound 1 µM): 0.654
relative viability (EMC-BAC-2; first compound 0.01 µM): 0.525
relative viability (EMC-BAC-2; first compound 0.03162 µM): 0.586
relative viability (EMC-BAC-2; first compound 0.1 µM): 0.562
relative viability (EMC-BAC-2; first compound 0.3162 µM): 0.592
relative viability (EMC-BAC-2; first compound 1 µM): 0.418
relative viability (SW 900; first compound 0.01 µM): 0.529
relative viability (SW 900; first compound 0.03162 µM): 0.678
relative viability (SW 900; first compound 0.3162 µM): 0.48
relative viability (SW 900; first compound 1 µM): 0.364
relative viability (NCI-H3122; first compound 0.01 µM): 0.39
relative viability (NCI-H3122; first compound 0.03162 µM): 0.362
relative viability (NCI-H3122; first compound 0.1 µM): 0.633
relative viability (NCI-H3122; first compound 0.3162 µM): 0.367
relative viability (NCI-H3122; first compound 1 µM): 0.321
relative viability (SK-MES-1; first compound 0.01 µM): 0.706
relative viability (SK-MES-1; first compound 0.03162 µM): 0.673
relative viability (SK-MES-1; first compound 0.1 µM): 0.637
relative viability (SK-MES-1; first compound 0.3162 µM): 0.641
relative viability (SK-MES-1; first compound 1 µM): 0.483
relative viability (NCI-H2170; first compound 0.01 µM): 0.417
relative viability (NCI-H2170; first compound 0.03162 µM): 0.416
relative viability (NCI-H2170; first compound 0.1 µM): 0.414
relative viability (NCI-H2170; first compound 0.3162 µM): 0.413
relative viability (NCI-H2170; first compound 1 µM): 0.345
relative viability (NCI-H596; first compound 0.01 µM): 0.66
relative viability (NCI-H596; first compound 0.03162 µM): 0.727
relative viability (NCI-H596; first compound 0.1 µM): 0.899
relative viability (NCI-H596; first compound 0.3162 µM): 0.832
relative viability (NCI-H596; first compound 1 µM): 0.621
relative viability (A-427; first compound 0.01 µM): 0.294
relative viability (A-427; first compound 0.03162 µM): 0.273
relative viability (A-427; first compound 0.1 µM): 0.289
relative viability (A-427; first compound 0.3162 µM): 0.204
relative viability (A-427; first compound 1 µM): 0.173
relative viability (NCI-H322M; first compound 0.01 µM): 0.77
relative viability (NCI-H322M; first compound 0.03162 µM): 0.779
relative viability (NCI-H322M; first compound 0.1 µM): 0.791
relative viability (NCI-H322M; first compound 0.3162 µM): 0.784
relative viability (NCI-H322M; first compound 1 µM): 0.668
relative viability (NCI-H1792; first compound 0.01 µM): 0.363
relative viability (NCI-H1792; first compound 0.03162 µM): 0.43
relative viability (NCI-H1792; first compound 0.1 µM): 0.312
relative viability (NCI-H1792; first compound 0.3162 µM): 0.232
relative viability (NCI-H1792; first compound 1 µM): 0.168
relative viability (NCI-H2009; first compound 0.01 µM): 0.471
relative viability (NCI-H2009; first compound 0.03162 µM): 0.462
relative viability (NCI-H2009; first compound 0.1 µM): 0.451
relative viability (NCI-H2009; first compound 0.3162 µM): 0.456
relative viability (NCI-H2009; first compound 1 µM): 0.357
relative viability (NCI-H2228; first compound 0.01 µM): 0.341
relative viability (NCI-H2228; first compound 0.03162 µM): 0.336
relative viability (NCI-H2228; first compound 0.1 µM): 0.384
relative viability (NCI-H2228; first compound 0.3162 µM): 0.346
relative viability (NCI-H2228; first compound 1 µM): 0.304
relative viability (LK-2; first compound 0.01 µM): 0.638
relative viability (LK-2; first compound 0.03162 µM): 0.289
relative viability (LK-2; first compound 0.1 µM): 0.239
relative viability (LK-2; first compound 0.3162 µM): 0.304
relative viability (LK-2; first compound 1 µM): 0.223
relative viability (SW 1573; first compound 0.01 µM): 0.351
relative viability (SW 1573; first compound 0.03162 µM): 0.372
relative viability (SW 1573; first compound 0.1 µM): 0.394
relative viability (SW 1573; first compound 0.3162 µM): 0.36
relative viability (SW 1573; first compound 1 µM): 0.36
relative viability (ABC-1; first compound 0.01 µM): 0.24
relative viability (ABC-1; first compound 0.03162 µM): 0.286
relative viability (ABC-1; first compound 0.1 µM): 0.256
relative viability (ABC-1; first compound 0.3162 µM): 0.208
relative viability (ABC-1; first compound 1 µM): 0.254
relative viability (NCI-H1944; first compound 0.01 µM): 0.204
relative viability (NCI-H1944; first compound 0.03162 µM): 0.195
relative viability (NCI-H1944; first compound 0.1 µM): 0.194
relative viability (NCI-H1944; first compound 0.3162 µM): 0.202
relative viability (NCI-H1944; first compound 1 µM): 0.16
relative viability (NCI-H522; first compound 0.01 µM): 0.726
relative viability (NCI-H522; first compound 0.03162 µM): 0.768
relative viability (NCI-H522; first compound 0.1 µM): 0.582
relative viability (NCI-H522; first compound 0.3162 µM): 0.688
relative viability (NCI-H522; first compound 1 µM): 0.633
relative viability (HARA; first compound 0.01 µM): 0.49
relative viability (HARA; first compound 0.03162 µM): 0.504
relative viability (HARA; first compound 0.1 µM): 0.489
relative viability (HARA; first compound 0.3162 µM): 0.395
relative viability (HARA; first compound 1 µM): 0.364
relative viability (NCI-H1993; first compound 0.01 µM): 0.501
relative viability (NCI-H1993; first compound 0.03162 µM): 0.512
relative viability (NCI-H1993; first compound 0.1 µM): 0.554
relative viability (NCI-H1993; first compound 0.3162 µM): 0.492
relative viability (NCI-H1993; first compound 1 µM): 0.514
relative viability (NCI-H727; first compound 0.01 µM): 0.509
relative viability (NCI-H727; first compound 0.03162 µM): 0.49
relative viability (NCI-H727; first compound 0.1 µM): 0.547
relative viability (NCI-H727; first compound 0.3162 µM): 0.728
relative viability (NCI-H727; first compound 1 µM): 0.632

— the supplement of paper PMC10307832
